According to US8673929B2, “4,6-di- and 2,4,6-trisubstituted quinazoline derivatives and pharmaceutical compositions useful for treating viral infections” (priority 2006, dated 2014):
pEC50: −log10 of the molar value.

How the values were obtained:
HCV replicon = test: Anti-HCV replicon assay, EC50 (luciferase readout); type: cell-based; details: Hepatitis C virus, 72 h; Huh-7 HCV replicon cells, 3 days incubation, luciferase luminescence
Procedure, shortened: (§1)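 Huh-7 cells harbouring an HCV replicon (6000/well) incubated 3 days at 37° C with 3-fold serially diluted compound (0.5% DMSO final where used). EC50 from luciferase luminescence of lysed cells; CC50 from CellTiter-Glo luminescence in parallel plates.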

[1] = CC50 assay in the anti-HCV replicon assay (CellTiter-Glo); type: cell-based, human; details: human, Huh-7 hepatoma cells harbouring an HCV replicon; Huh-7 HCV replicon cells, 3 days incubation, CellTiter-Glo luminescence
Procedure, shortened: as §1

SMILES | pEC50 (HCV replicon) | CC50 at 3 days [1] [µM]
COCCOc1nc(N)nc2ccc(-c3ccc(Cl)c(C(F)(F)F)c3)cc12 [Example 69, 6-(4-Chloro-3-trifluoromethyl-phenyl)-4-(2-methoxy-ethoxy)-quinazolin-2-ylamine] | 5.00 to 6.00 | > 20
CCOc1nc(N)nc2ccc(-c3ccc(C(=O)NCc4ccccc4)cc3)cc12 [Example 149, 4-(2-Amino-4-ethoxy-quinazolin-6-yl)-N-benzyl-benzamide] | 5.00 to 6.00 | > 20
Nc1nc(OC[C@@H]2CCCO2)c2cc(-c3ccc(C(=O)NC4CC4)cc3)ccc2n1 [Example 213] | > 6.52 | > 20
CCOc1nc(N)nc2ccc(-c3ccc(F)c(F)c3F)cc12 [Example 50, 4-Ethoxy-6-(2,3,4-trifluoro-phenyl)-quinazolin-2-ylamine] | 5.00 to 6.00 | 10 to 20
CCOc1nc(N)nc2ccc(-c3cccc(C#N)c3)cc12 [Example 47, 3-(2-Amino-4-ethoxy-quinazolin-6-yl)-benzonitrile] | 5.00 to 6.00 | > 20
CCOc1nc(NCc2ccc(S(N)(=O)=O)cc2)nc2ccc(-c3ccc(F)c(NS(=O)(=O)C4CC4)c3)cc12 [Example 251, 4-{[6-(3-Cyclopropanesulfonylamino-4-fluoro-phenyl)-4-ethoxy-quinazolin-2-ylamino]-methyl}-benzenesulfonamide] | > 6.52 | < 10
CCCCNC(=O)c1ccc(-c2ccc3nc(N)nc(OCCF)c3c2)cc1 [Example 199, 4-[2-Amino-4-(2-fluoro-ethoxy)-quinazolin-6-yl]-N-butyl-benzamide] | 5.00 to 6.00 | > 20
Nc1nc(OCCN2CCOCC2)c2cc(-c3ccsc3)ccc2n1 [Example 236, 4-(2-Morpholin-4-yl-ethoxy)-6-thiophen-3-yl-quinazolin-2-ylamine] | 5.00 to 6.00 | > 20
CCOc1nc(NCc2ccc(S(N)(=O)=O)cc2)nc2ccc(-c3ccc(C(N)=O)cc3)cc12 [Example 255, 4-[4-Ethoxy-2-(4-sulfamoyl-benzylamino)-quinazolin-6-yl]-benzamide] | > 6.52 | < 10
COCCOc1nc(N)nc2ccc(-c3cccc(F)c3F)cc12 [Example 52, 6-(2,3-Difluoro-phenyl)-4-(2-methoxy-ethoxy)-quinazolin-2-ylamine] | 5.00 to 6.00 | 10 to 20
CCOc1nc(N)nc2ccc(-c3ccsc3)cc12 [Example 45, 4-Ethoxy-6-thiophen-3-yl-quinazolin-2-ylamine] | 5.00 to 6.00 | > 20
CC(C)CNC(=O)c1ccc(-c2ccc3nc(N)nc(OC(C)C)c3c2)cc1 [Example 171, 4-(2-Amino-4-isopropoxy-quinazolin-6-yl)-N-isobutyl-benzamide] | 6.00 to 6.52 | 10 to 20
CC(C)Oc1nc(N)nc2ccc(-c3cc4ccccc4s3)cc12 [Example 83, 6-Benzo[b]thiophen-2-yl-4-isopropoxy-quinazolin-2-ylamine] | 5.00 to 6.00 | 10 to 20
COCCOc1nc(N)nc2ccc(-c3ccc(F)c(F)c3)cc12 [Example 62, 6-(3,4-Difluoro-phenyl)-4-(2-methoxy-ethoxy)-quinazolin-2-ylamine] | 5.00 to 6.00 | 10 to 20
Nc1nc(OCCN2CCOCC2)c2cc(-c3cccc(F)c3F)ccc2n1 [Example 243, 6-(2,3-Difluoro-phenyl)-4-(2-morpholin-4-yl-ethoxy)-quinazolin-2-ylamine] | 5.00 to 6.00 | > 20
Nc1nc(OCC2CCC2)c2cc(-c3ccoc3)ccc2n1 [Example 111, 4-Cyclobutylmethoxy-6-furan-3-yl-quinazolin-2-ylamine] | 6.00 to 6.52 | 10 to 20

SMILES | pEC50 (HCV replicon) | CC50 at 3 days [1] [µM]
CC(C)Oc1nc(N)nc2ccc(-c3ccc(C#N)cc3)cc12 [Example 99, 4-(2-Amino-4-isopropoxy-quinazolin-6-yl)-benzonitrile] | 6.00 to 6.52 | > 20
Nc1nc(OCCO)c2cc(-c3ccc(C(=O)N4CCSC4)cc3)ccc2n1 [Example 192, {4-[2-Amino-4-(2-hydroxy-ethoxy)-quinazolin-6-yl]-phenyl}-thiazolidin-3-yl-methanone] | 5.00 to 6.00 | > 20
CN(C)CCOCCOc1nc(N)nc2ccc(-c3ccc(OC(F)(F)F)cc3)cc12 [Example 73, 4-[2-(2-Dimethylamino-ethoxy)-ethoxy]-6-(4-trifluoromethoxy-phenyl)-quinazolin-2-ylamine] | 5.00 to 6.00 | 10 to 20
CONC(=O)c1ccc(-c2ccc3nc(N)nc(OCCO)c3c2)cc1 [Example 191, 4-[2-Amino-4-(2-hydroxy-ethoxy)-quinazolin-6-yl]-N-methoxy-benzamide] | 5.00 to 6.00 | > 20
CC(C)Oc1nc(N)nc2ccc(-c3ccoc3)cc12 [Example 84, 6-Furan-3-yl-4-isopropoxy-quinazolin-2-ylamine] | 6.00 to 6.52 | 10 to 20
CC(=O)Nc1ccc(-c2ccc3nc(N)nc(OC(C)C)c3c2)cc1 [Example 27, 2-amino-6-(4-acetamidophenyl)-4-isopropoxy-quinazoline] | 6.00 to 6.52 | > 20
CC(C)Oc1nc(N)nc2ccc(-c3ccc(OC(F)(F)F)cc3)cc12 [Example 95, 4-Isopropoxy-6-(4-trifluoromethoxy-phenyl)-quinazolin-2-ylamine] | 5.00 to 6.00 | > 20
CC(C)Oc1nc(N)nc2ccc(-c3ccc(C(=O)NC4CC4)cc3)cc12 [Example 185, 4-(2-Amino-4-isopropoxy-quinazolin-6-yl)-N-cyclopropyl-benzamide] | > 6.52 | < 10
CC(C)Oc1nc(N)nc2ccc(-c3ccc(C(=O)Nc4ccc(F)cc4)cc3)cc12 [Example 179, 4-(2-Amino-4-isopropoxy-quinazolin-6-yl)-N-(4-fluoro-phenyl)-benzamide] | 6.00 to 6.52 | < 10
COCCOc1nc(N)nc2ccc(-c3cc4ccccc4o3)cc12 [Example 57, 6-Benzofuran-2-yl-4-(2-methoxy-ethoxy)-quinazolin-2-ylamine] | 5.00 to 6.00 | 10 to 20
Nc1nc(OCCN2CCOCC2)c2cc(-c3cc4ccccc4o3)ccc2n1 [Example 238, 6-Benzofuran-2-yl-4-(2-morpholin-4-yl-ethoxy)-quinazolin-2-ylamine] | 5.00 to 6.00 | 10 to 20
CCOc1nc(N)nc2ccc(-c3ccn[nH]3)cc12 [Example 41, 4-Ethoxy-6-(2H-pyrazol-3-yl)-quinazolin-2-ylamine] | 5.00 to 6.00 | > 20
CCOc1nc(N)nc2ccc(-c3ccc(C(=O)NCc4ccco4)cc3)cc12 [Example 157, 4-(2-Amino-4-ethoxy-quinazolin-6-yl)-N-furan-2-ylmethyl-benzamide] | 5.00 to 6.00 | > 20
Nc1nc(OCC2CCC2)c2cc(-c3ccn[nH]3)ccc2n1 [Example 113, 4-Cyclobutylmethoxy-6-(2H-pyrazol-3-yl)-quinazolin-2-ylamine] | 6.00 to 6.52 | 10 to 20
Nc1nc(OCCO)c2cc(-c3cccc(O)c3)ccc2n1 [Example 194, 3-[2-Amino-4-(2-hydroxy-ethoxy)-quinazolin-6-yl]-phenol] | 5.00 to 6.00 | 10 to 20
